Measurements reported in US10294202B2, “Pyrrolidinones as herbicides” (FMC Corporation, priority 2013, dated 2019).

Legend:
sedge, umbrella = assay: Test C flooded paddy test; type: in vivo, Cyperus difformis; conditions: Flood
Outline: (§1)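 Plants at the 2-leaf stage in pots flooded to 3 cm were treated by applying compound directly to the paddy water, with depth held throughout. After 13 to 15 days in a greenhouse, response was rated visually against controls on a 0 (no effect) to 100 (complete control) scale.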

barnyardgrass [1] = assay: Test C flooded paddy test; type: in vivo, Echinochloa crus-galli; conditions: Flood
Outline: as §1

crabgrass, large = assay: Test A pre-/postemergence herbicide test; type: in vivo, Digitaria sanguinalis
Outline: (§2)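 Greenhouse pot test with pre- and postemergence application of surfactant-containing solvent formulations. Postemergence plants were 2–10 cm, one- to two-leaf stage. Response scored visually after ~10 days, 0 (no effect) to 100 (complete control).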

wheat = assay: Test A pre-/postemergence herbicide test; type: in vivo, Triticum aestivum
Outline: as §2

ducksalad = assay: Test C flooded paddy test; type: in vivo, Heteranthera limosa; conditions: Flood
Outline: as §1

rice = assay: Test C flooded paddy test; type: in vivo, Oryza sativa; conditions: Flood
Outline: as §1

morningglory = assay: Test A pre-/postemergence herbicide test; type: in vivo, Ipomoea spp.
Outline: as §2

barnyardgrass [2] = assay: Test A pre-/postemergence herbicide test; type: in vivo, Echinochloa crus-galli
Outline: as §2

velvetleaf = assay: Test A pre-/postemergence herbicide test; type: in vivo, Abutilon theophrasti
Outline: as §2

giant foxtail = assay: Test A pre-/postemergence herbicide test; type: in vivo, Setaria faberii
Outline: as §2

corn = assay: Test A pre-/postemergence herbicide test; type: in vivo, Zea mays
Outline: as §2

pigweed = assay: Test A pre-/postemergence herbicide test; type: in vivo, Amaranthus retroflexus
Outline: as §2

[3] = 31 g ai/ha, scale of 0 to 100 where 0 is no effect and 100 is complete control, 13 to 15 days
[4] = 62 g ai/ha, scale of 0 to 100 where 0 is no effect and 100 is complete control, 13 to 15 days
[5] = 125 g ai/ha, scale of 0 to 100 where 0 is no effect and 100 is complete control, 13 to 15 days
[6] = Postemergence, 1000 g ai/ha, 0 to 100 scale (0 no effect, 100 complete control)
[7] = Preemergence, 1000 g ai/ha, visual rating on 0 to 100 scale (0 no effect, 100 complete control), approx. 10 days
[8] = Postemergence, 125 g ai/ha, 0 to 100 scale, 0 no effect, 100 complete control
[9] = Postemergence, 500 g ai/ha, 0 to 100 scale (0 no effect, 100 complete control)
[10] = Preemergence, 125 g ai/ha, visual rating on 0 to 100 scale (0 no effect, 100 complete control)
[11] = preemergence, 500 g ai/ha, 0 to 100 scale

O=C1NCC(c2ccc(F)c(F)c2)C1C(=O)Nc1ccccc1[N+](=O)[O-] (racemic) [Compound 20]
0: Plant response rating, Sedge, Umbrella (sedge, umbrella; [3]) | Plant response rating, Sedge, Umbrella (sedge, umbrella; [4]) | Plant response rating, Sedge, Umbrella (sedge, umbrella; [5]) | Plant response rating, Sedge, Umbrella (sedge, umbrella; 250 g ai/ha, scale 0 to 100) | Plant response rating, Barnyardgrass (barnyardgrass [1]; [3]) | Plant response rating, Barnyardgrass (barnyardgrass [1]; [4]) | Plant response rating, Barnyardgrass (barnyardgrass [1]; [5]) | Plant response rating, Barnyardgrass (barnyardgrass [1]; 250 g ai/ha, scale 0 to 100) | Plant response rating, Wheat (wheat; [7]) | Plant response rating, Ducksalad (ducksalad; [3]) | Plant response rating, Ducksalad (ducksalad; [4]) | Plant response rating, Ducksalad (ducksalad; [5]) | Plant response rating, Ducksalad (ducksalad; 250 g ai/ha, scale 0 to 100) | Plant response rating, Rice (rice; [3]) | Plant response rating, Rice (rice; [4]) | Plant response rating, Rice (rice; [5]) | Plant response rating, Rice (rice; 250 g ai/ha, scale 0 to 100) | Plant response rating, Morningglory (morningglory; [6]) | Plant response rating, Morningglory (morningglory; [7]) | Plant response rating, Velvetleaf (velvetleaf; [6]) | Plant response rating, Corn (corn; [6]) | Plant response rating, Corn (corn; [7]) | Plant response rating, Pigweed (pigweed; [6]) | Plant response rating, Pigweed (pigweed; [7])
90: Plant response rating, Crabgrass, Large (crabgrass, large; [6]) | Plant response rating, Crabgrass, Large (crabgrass, large; [7]) | Plant response rating, Barnyardgrass (barnyardgrass [2]; [7]) | Plant response rating, Foxtail, Giant (giant foxtail; [7])
80: Plant response rating, Barnyardgrass (barnyardgrass [2]; [6]) | Plant response rating, Foxtail, Giant (giant foxtail; [6])
20: Plant response rating, Wheat (wheat; [6])
30: Plant response rating, Velvetleaf (velvetleaf; [7])

O=C1NCC(c2ccsc2)C1C(=O)Nc1ccccc1C(F)(F)F (racemic) [Compound 28]
0: Plant response rating, Sedge, Umbrella (sedge, umbrella; [3]) | Plant response rating, Sedge, Umbrella (sedge, umbrella; [4]) | Plant response rating, Sedge, Umbrella (sedge, umbrella; [5]) | Plant response rating, Sedge, Umbrella (sedge, umbrella; 250 g ai/ha, scale 0 to 100) | Plant response rating, Barnyardgrass (barnyardgrass [1]; [3]) | Plant response rating, Barnyardgrass (barnyardgrass [1]; [4]) | Plant response rating, Barnyardgrass (barnyardgrass [1]; [5]) | Plant response rating, Barnyardgrass (barnyardgrass [1]; 250 g ai/ha, scale 0 to 100) | Plant response rating, Wheat (wheat; [8]) | Plant response rating, Wheat (wheat; [9]) | Wheat plant response rating (wheat; [10]) | Plant response rating, Wheat (wheat; [11]) | Plant response rating, Rice (rice; [3]) | Plant response rating, Rice (rice; [4]) | Plant response rating, Rice (rice; [5]) | Plant response rating, Rice (rice; 250 g ai/ha, scale 0 to 100) | Plant response rating, Morningglory (morningglory; [8]) | Plant response rating, Morningglory (morningglory; [9]) | Morningglory plant response rating (morningglory; [10]) | Plant response rating, Morningglory (morningglory; [11]) | Plant response rating, Barnyardgrass (barnyardgrass [2]; [8]) | Plant response rating, Barnyardgrass (barnyardgrass [2]; [9]) | Barnyardgrass plant response rating (barnyardgrass [2]; [10]) | Plant response rating, Velvetleaf (velvetleaf; [9]) | Velvetleaf plant response rating (velvetleaf; [10]) | Plant response rating, Velvetleaf (velvetleaf; [11]) | Plant response rating, Foxtail, Giant (giant foxtail; [8]) | Plant response rating, Foxtail, Giant (giant foxtail; [9]) | Foxtail, Giant plant response rating (giant foxtail; [10]) | Plant response rating, Corn (corn; [8]) | Plant response rating, Corn (corn; [9]) | Corn plant response rating (corn; [10]) | Plant response rating, Corn (corn; [11]) | Plant response rating, Pigweed (pigweed; [8]) | Plant response rating, Pigweed (pigweed; [9]) | Pigweed plant response rating (pigweed; [10]) | Plant response rating, Pigweed (pigweed; [11])
80: Plant response rating, Crabgrass, Large (crabgrass, large; [11])
20: Plant response rating, Crabgrass, Large (crabgrass, large; [8]) | Plant response rating, Ducksalad (ducksalad; [3]) | Plant response rating, Barnyardgrass (barnyardgrass [2]; preemergence, 500 g ai/ha, 0 to 100 scale (0 no effect, 100 complete control)) | Plant response rating, Foxtail, Giant (giant foxtail; [11])
85: Plant response rating, Ducksalad (ducksalad; 250 g ai/ha, scale 0 to 100)
30: Crabgrass, Large plant response rating (crabgrass, large; [10]) | Plant response rating, Ducksalad (ducksalad; [4])
40: Plant response rating, Crabgrass, Large (crabgrass, large; [9]) | Plant response rating, Ducksalad (ducksalad; [5])
